The nature of data set [1]: Degradation of stored BEC extract, solamargine and solasonine levels by HPLC. Format: physicochemical. The note with it: for % degradation estimated: four weeks storage under ambient conditions, estimated from the degradation study. The source says: A BEC extract was obtained from Solanum Sodomaeum according to conventional extraction procedures. The degradation of the BEC extract was estimated by measuring the change in solamargine and solasonine levels over time. Although degradation of BEC could also be measured by an increase in sugar levels, in practice HPLC analysis for solamargine and solasonine allowed a more quantative analysis to be conducted and was therefore chosen for this study.

The test system of the next data set is murine sarcoma 180. The following applies: cited from earlier work.
For data set [2], the system named is human ovarian cancer cells. Briefly: Effect of washed and unwashed BEC on human ovarian cancer cells. In kind it is cell-based. Here is the method:
The effect of washed and unwashed BEC or human ovarian cancer cells was compared. The washed and unwashed BEC were prepared as described for Example 8.
Cells (5×10^4) were transferred (200 μl chamber of a microscope slide (Lab Tek Miles Scientific). Controls received 50 μl HIFCS/TCM and experimental chambers 50 μl of solasodine glycosides (BEC) 1.5-3.8 μM/L, washed and unwashed after 7-h preincubation and incubated for a further 17 h and […] preincubation and incubated for a further 3h. Similarly, the cells were treated with the aglycone solasodine 19.4-96.8 μM/L. The cells were fixed and examined by the Papanicolaou method.

[3] abbreviates: Time 0 years storage of BEC extract.

On to `C[C@@H]1CC[C@@]2(NC1)O[C@H]1C[C@H]3[C@@H]4CC=C5C[C@@H](O[C@@H]6O[C@H](CO)[C@@H](O[C@@H]7O[C@@H](C)[C@H](O)[C@@H](O)[C@H]7O)[C@H](O)[C@H]6O[C@@H]6O[C@@H](C)[C@H](O)[C@@H](O)[C@H]6O)CC[C@]5(C)[C@H]4CC[C@]3(C)[C@H]1[C@@H]2C` [Solamargine, (22R,25R)-spiro-5-en-3β-yl-α-L-rhamnopyranosyl-(1->2glu)-O-α-L-rhamnopyranosyl-(1->4glu)-β-D-gluco-pyranose], for which the “Degradation (%) mean ± S.D.” value in data set [1] (setting [3]) came out at 0%; in data set [1] (Time 0.5 years), 4 ± 4%; in data set [1] (Time 1 year) it was 8 ± 5%; in data set [1] (Time 2 years), 12 ± 7%; in data set [1] (Time 3 years) it was 15 ± 8%; in data set [1] (Time 4 years), 19 ± 10%. In addition, the “Degradation (%) mean ± S.D.” value in data set [1] (Time 5 years) turned out to be 22 ± 10%. Moreover, the “% degradation estimated” value in data set [1] is “less than 4%”.
`C[C@@H]1CC[C@@]2(NC1)O[C@H]1C[C@H]3[C@@H]4CC=C5C[C@@H](O)CC[C@]5(C)[C@H]4CC[C@]3(C)[C@H]1[C@@H]2C` [Solasodine, solasodine]: the “effect against tumor cells” value in the data set on murine sarcoma 180 (administered at levels at which BEC is effective) is “ineffective”. The “% survival” value in data set [2] (3 μg/mL), in data set [2] (6 μg/mL), in data set [2] (9 μg/ml), in data set [2] (12 μg/ml), in data set [2] (15 μg/ml) and in data set [2] (18 μg/ml) was 100% in each case. Also, the “% survival” value in data set [2] (24 μg/ml) is given as 100%.
Take `C[C@@H]1CC[C@@]2(NC1)O[C@H]1C[C@H]3[C@@H]4CC=C5C[C@@H](O[C@@H]6O[C@H](CO)[C@H](O)[C@H](O[C@@H]7O[C@H](CO)[C@@H](O)[C@H](O)[C@H]7O)[C@H]6O[C@@H]6O[C@@H](C)[C@H](O)[C@@H](O)[C@H]6O)CC[C@]5(C)[C@H]4CC[C@]3(C)[C@H]1[C@@H]2C` [Solasonine, (22R, 25R)-spiro-5-en-3β-yl-α-L-rhamnopyranosyl-(1->2gal)-O-β-D-glucopyranosyl-(1->3gal)-β-D-galactopyranose]: the “Degradation (%) mean ± S.D.” value in data set [1] (setting [3]) is 0%; in data set [1] (Time 0.5 years) it was 5 ± 5%; in data set [1] (Time 1 year), 10 ± 5%; in data set [1] (Time 2 years), 15 ± 8%; in data set [1] (Time 3 years), 19 ± 9%; in data set [1] (Time 4 years), 21 ± 10%. Besides, the “Degradation (%) mean ± S.D.” value in data set [1] (Time 5 years) was 23 ± 11%. Further, the “% degradation estimated” value in data set [1] is given as below 5%.
Consider `C[C@H](O)[C@H](O)[C@@H](O)[C@@H](O)C=O` [rhamnose], for which the “effect on S180 activity” value in the data set on murine sarcoma 180 (similar concentrations of rhamnose in the absence of BEC) is on record as “no effect”.

The record behind these values is patent publication US20040220115A1, “Medicinal compositions and their method of preparation” (priority 1999, published 2004).
